From the NIST ThermoML archive (doi:10.1016/j.fluid.2012.11.030) come the findings set out here.

± gives the expanded uncertainty stated by the source.

A short description of data set [1]: Molar enthalpy of transition or fusion. Particulars: Crystal; DSC.
The conditions of data set [2]: Crystal; DTA.

For the compound `CCCCCCCC/C=C\CCCCCCCC(=O)OCC` [ethyl (Z)-9-octadeceneoate], in data set [1], the “Molar enthalpy of transition or fusion” value came out at 11.4 ± 0.311 kcal/mol. Further, in data set [2], the Normal melting temperature is -19.06 ± 0.7 °C.

In the case of `CCCCCCCCCCCC(=O)OCC` [ethyl dodecanoate], the “Molar enthalpy of transition or fusion” value in data set [1] came to 9.52 ± 0.263 kcal/mol. For the same compound, the Normal melting temperature in data set [2] amounted to 0.1 ± 0.7 °C.

As for `CCCCCCCCCCCCCCCC(=O)OCC` [ethyl hexadecanoate], the “Molar enthalpy of transition or fusion” value in data set [1] came out at 13.3 ± 0.359 kcal/mol. Also, the Normal melting temperature in data set [2] is 25.08 ± 0.7 °C.
